Assay results as given in US20230103237A1, “BIODEGRADABLE PARTICLES AND BIODEGRADABLE PARTICLES IN CONTACT WITH ACTIVE INGREDIENTS” (The United States of America, as represented by the …, priority 2021, published 2023).

System: Culex quinquefasciatus mosquito larvae
Assay: whole plant or invertebrate
Format: in vivo
Excerpt: FIG. 5 depicts a graph of the percentage of mosquito larvae death as a function of time for the different zein-silver particle solutions. This graph includes the results from five (5) trials with twenty (20) 3rd instar or 4th instar larvae. The Y axis presents the percentage death (Lethal %). The X axis presents the time after treatment in hours. Circles represent 100 ppm zein-silver particles; triangles represent 1 ppm zein-silver particles; diamonds represent 0.1 ppm zein-silver particles.
The larvicidal effect of the zein-silver particles prepared above was tested on Culex quinquefasciatus mosquito species.

[BH4-].[Na+] [sodium borohydride]
killing of larvae (0.2 ppm, after 90 hours): 8%

OCC(O)CO [Glycerol, glycerol]
mortality at 0.2 ppm (Culex quinquefasciatus, 40 h, read-out: Larval Mortality (%)): 0%
